Results as given in ChEMBL document CHEMBL3046662, “Hypoglycemic and insulin mimetic impact of catechin isolated from Cassia fistula: a substantiate in silico approach through docking analysis” (Med Chem Res, 2012).
Active and inactive are the calls of the source. The calls are words filed in the database; no cut-off is given here.

Tested on: Rattus norvegicus
Assay: Hypoglycemic activity in Rattus norvegicus albino Wistar (rat) streptozotocin-induced diabetic model assessed as reduction of plasma glucose level at 20 mg/kg, po qd for 60 days measured up to 180 min by oral glucose tolerance test
Type: functional, organism-based
Design: dose 20 mg/kg

Question: Which Activity does the source give for `Oc1cc(O)c2c(c1)OC(c1ccc(O)c(O)c1)C(O)C2` (stereo unspecified) here?
Answer: Active
